Reference: patent publication US9079858B2, “Rock kinase inhibitors” (Amakem NV, priority 2011, dated 2015)
Blank lines part the entries; values can stand above or below the molecule they belong to.

Key:
[1] = Stability assay in rabbit aqueous humor; type: in vitro ADME; settings: 1 μM in rabbit aqueous humor; for half-life at 1 μM: read-out: t½ Rabbit AH
Protocol: (§1) Compounds are incubated at a concentration of 1 μM in rabbit aqueous humor (AH) or rabbit vitreous (VH). Samples are taken at fixed time points and the remnant of compound is determined by LC-MS/MS after protein precipitation.

[2] = Stability assay in rabbit vitreous humor; type: in vitro ADME; settings: 1 μM in rabbit vitreous; for half-life at 1 μM: rabbit vitreous humor, read-out: t½ Rabbit VH
Protocol: as §1

human hepatocytes = test: Stability assay in human hepatocytes; type: in vitro ADME; settings: 1 μM
Protocol: Compounds are incubated at a concentration of 1 μM with human hepatocytes (2 10^6 cells/ml in buffer solution). At fixed time points (ex: 1, 30, 60 & 120 minutes), an incubation mixture (200 μl) is cooled down on ice and 100 μl of acetonitrile is added. After vortex-mixing, the sample is centrifuged for 5 minutes at 16000 rpm. The remnant of compound in each sample is determined by LC-PDA-MS/MS analysis and half-life of the compound is subsequently calculated. Formation of the acid metabolite resulting from ester hydrolysis can be performed simultaneously. Peak areas for appearance of the acid are first recorded, and the corresponding concentrations are then back-calculated from calibration curve.
When evaluated under such conditions, compounds of the invention are rapidly degraded in the corresponding acid (primary metabolite).

[3] = Pharmacokinetics after intravenous and oral administration in mice; type: in vivo, male CD-1 mice
Protocol: The bioavailability of compound 1 was evaluated after intravenous and oral dosing in male CD-1 mice. The compound was dosed at 0.1 mg/kg intravenously and 1 mg/kg orally. Plasma levels were determined by LC-MS/MS and pharmacokinetic parameters were estimated by a non-compartmental model using WinNonlin v5.2.1 software.

t½ Rabbit AH [1]: >1 h
t½ Rabbit VH [2]: >1 h
SMILES: COCCOC(=O)c1ccc(NC(=O)c2cccc(-c3cc(C(=O)Nc4ccncc4F)ccc3CN)c2)cc1 [Compound 9, 2-methoxyethyl 4-({3-[2-(aminomethyl)-5-[(3-fluoropyridin-4-yl)carbamoyl]phenyl]phenyl}amido)benzoate]

t1/2 in human hepatocytes (human hepatocytes): 0.233 h
% remaining (human hepatocytes; time 1 min): 100.0%
% remaining (human hepatocytes; time 30 min): 16.0 +/− 0.4%
% remaining (human hepatocytes; time 60 min): 4.8 +/− 0.1%
% remaining (human hepatocytes; time 120 min): 2.4 +/− 1.3%
t½ Rabbit AH [1]: >1 h
t½ Rabbit VH [2]: >1 h
AUClast (intravenous exposure) ([3]; intravenous 0.1 mg/kg): 4.82 ± 0.276 ng·h/mL
clearance ([3]; intravenous 0.1 mg/kg): 257 mL/min/kg
volume of distribution ([3]; intravenous 0.1 mg/kg): 100 L/kg
Cmax ([3]; intravenous 0.1 mg/kg, mouse plasma): 16.3 ng/mL
AUClast ([3]; oral 1 mg/kg): 6.20 ± 5.50 ng·h/mL
Cmax ([3]; oral 1 mg/kg): 22.4 ± 22 ng/mL
percent oral bioavailability ([3]; oral 1 mg/kg vs intravenous 0.1 mg/kg): 12.9%
SMILES: COC(=O)c1ccc(NC(=O)c2cccc(-c3cc(C(=O)Nc4ccncc4F)ccc3CN)c2)cc1 [Compound 1, methyl 4-({3-[2-(aminomethyl)-5-[(3-fluoropyridin-4-yl)carbamoyl]phenyl]phenyl}amido)benzoate]
metabolism and excretion in words ([3]; mice, intravenous and oral): rapidly metabolized and excreted from the body very rapidly

half-life at 1 μM [1]: > 1 h
half-life at 1 μM [2]: > 1 h
SMILES: COC(=O)c1ccc(C(=O)Nc2cccc(-c3cc(C(=O)Nc4ccncc4F)ccc3CN)c2)cc1 [Compound 7, methyl 4-({3-[2-(aminomethyl)-5-[(3-fluoropyridin-4-yl)carbamoyl]phenyl]phenyl}carbamoyl)benzoate]

t½ Rabbit AH [1]: >1 h
t½ Rabbit VH [2]: >1 h
SMILES: COC(=O)c1ccc(NC(=O)c2cccc(-c3cc(C(=O)Nc4ccncc4F)ccc3CN)c2)cc1F [Compound 3, methyl 4-({3-[2-(aminomethyl)-5-[(3-fluoropyridin-4-yl)carbamoyl]phenyl]phenyl}amido)-2-fluorobenzoate]

half-life at 1 μM [1]: > 1 h
half-life at 1 μM [2]: > 1 h
SMILES: COC(=O)c1ccc(C(=O)Nc2cccc(-c3cc(C(=O)Nc4ccncc4F)ccc3CN)c2)nc1 [Compound 8, methyl 6-({3-[2-(aminomethyl)-5-[(3-fluoropyridin-4-yl)carbamoyl]phenyl]phenyl}carbamoyl)pyridine-3-carboxylate]

t½ Rabbit AH [1]: >1 h
t½ Rabbit VH [2]: >1 h
SMILES: COC(=O)c1ccc(NC(=O)c2cccc(-c3cc(C(=O)Nc4ccncc4F)ccc3CN)c2)cc1C [Compound 5, methyl 4-({3-[2-(aminomethyl)-5-[(3-fluoropyridin-4-yl)carbamoyl]phenyl]phenyl}amido)-2-methylbenzoate]

t½ Rabbit AH [1]: >1 h
t½ Rabbit VH [2]: >1 h
SMILES: COC(=O)c1ccc(NC(=O)c2cccc(-c3cc(C(=O)Nc4ccncc4F)ccc3CN)c2)c(F)c1 [Compound 2, methyl 4-({3-[2-(aminomethyl)-5-[(3-fluoropyridin-4-yl)carbamoyl]phenyl]phenyl}amido)-3-fluorobenzoate]

t½ Rabbit AH [1]: >1 h
t½ Rabbit VH [2]: >1 h
SMILES: CCCOC(=O)c1ccc(NC(=O)c2cccc(-c3cc(C(=O)Nc4ccncc4F)ccc3CN)c2)c(F)c1 [Compound 4, propyl 4-({3-[2-(aminomethyl)-5-[(3-fluoropyridin-4-yl)carbamoyl]phenyl]phenyl}amido)-3-fluorobenzoate]

t½ Rabbit AH [1]: >1 h
t½ Rabbit VH [2]: >1 h
SMILES: NCc1ccc(C(=O)Nc2ccncc2F)cc1-c1cccc(C(=O)Nc2ccc(C(=O)OCC3CCCO3)cc2)c1 (stereo not drawn) [Compound 10, oxolan-2-ylmethyl 4-({3-[2-(aminomethyl)-5-[(3-fluoropyridin-4-yl)carbamoyl]phenyl]phenyl}amido)benzoate]

t½ Rabbit AH [1]: >1 h
t½ Rabbit VH [2]: >1 h
SMILES: CCCOC(=O)c1ccc(NC(=O)c2cccc(-c3cc(C(=O)Nc4ccncc4F)ccc3CN)c2)cc1C [Compound 6, propyl 4-({3-[2-(aminomethyl)-5-[(3-fluoropyridin-4-yl)carbamoyl]phenyl]phenyl}amido)-2-methylbenzoate]
